Experimental data from the NIST ThermoML archive (doi:10.1016/j.tca.2018.08.017).
Several values for one entry are separate records, joined by “and”; a condition that tells them apart may be missing. Identical values can stand only once. Numbers after ± are expanded uncertainties.

Details: 101.33 kPa, Liquid

CCCCCCCCCCCCCCCCCC [octadecane]
viscosity (309.68 K, Concentric cylinders viscometry): 3.276 ± 0.18 mPa·s
viscosity (309.75 K, Cone and plate viscometry): 3.24 ± 0.16 mPa·s
viscosity (309.85 K, Cone and plate viscometry): 3.3 ± 0.42 mPa·s
viscosity (309.95 K, Cone and plate viscometry): 3.22 ± 0.16 mPa·s and 3.2 ± 0.3 mPa·s
viscosity (310.04 K, Concentric cylinders viscometry): 3.245 ± 0.18 mPa·s
viscosity (310.15 K, Cone and plate viscometry): 3.21 ± 0.15 mPa·s and 3.28 ± 0.41 mPa·s and 3.42 ± 0.69 mPa·s
viscosity (310.25 K, Cone and plate viscometry): 3.18 ± 0.3 mPa·s
viscosity (310.32 K, Concentric cylinders viscometry): 3.229 ± 0.17 mPa·s
viscosity (310.35 K, Cone and plate viscometry): 3.22 ± 0.15 mPa·s and 3.26 ± 0.41 mPa·s
viscosity (310.41 K, Concentric cylinders viscometry): 3.218 ± 0.17 mPa·s
viscosity (310.55 K, Cone and plate viscometry): 3.18 ± 0.15 mPa·s
viscosity (310.65 K, Cone and plate viscometry): 3.25 ± 0.41 mPa·s and 3.14 ± 0.3 mPa·s and 3.38 ± 0.68 mPa·s
viscosity (310.75 K, Cone and plate viscometry): 3.17 ± 0.15 mPa·s
viscosity (310.77 K, Concentric cylinders viscometry): 3.19 ± 0.17 mPa·s
viscosity (310.85 K, Cone and plate viscometry): 3.24 ± 0.41 mPa·s
viscosity (310.95 K, Cone and plate viscometry): 3.15 ± 0.15 mPa·s and 3.12 ± 0.3 mPa·s
viscosity (311.04 K, Concentric cylinders viscometry): 3.171 ± 0.17 mPa·s
viscosity (311.15 K, Cone and plate viscometry): 3.14 ± 0.15 mPa·s and 3.22 ± 0.41 mPa·s and 3.35 ± 0.67 mPa·s
viscosity (311.16 K, Concentric cylinders viscometry): 3.159 ± 0.17 mPa·s
viscosity (311.35 K, Cone and plate viscometry): 3.14 ± 0.15 mPa·s and 3.2 ± 0.4 mPa·s and 3.1 ± 0.3 mPa·s
viscosity (311.54 K, Concentric cylinders viscometry): 3.13 ± 0.17 mPa·s
viscosity (311.55 K, Cone and plate viscometry): 3.14 ± 0.15 mPa·s
viscosity (311.65 K, Cone and plate viscometry): 3.19 ± 0.4 mPa·s and 3.32 ± 0.67 mPa·s
viscosity (311.75 K, Cone and plate viscometry): 3.12 ± 0.15 mPa·s and 3.07 ± 0.29 mPa·s
viscosity (311.78 K, Concentric cylinders viscometry): 3.118 ± 0.17 mPa·s
viscosity (311.85 K, Cone and plate viscometry): 3.17 ± 0.4 mPa·s
viscosity (311.95 K, Cone and plate viscometry): 3.11 ± 0.15 mPa·s
viscosity (311.96 K, Concentric cylinders viscometry): 3.099 ± 0.17 mPa·s
viscosity (312.05 K, Cone and plate viscometry): 3.05 ± 0.29 mPa·s
viscosity (312.15 K, Cone and plate viscometry): 3.1 ± 0.15 mPa·s and 3.15 ± 0.4 mPa·s and 3.28 ± 0.66 mPa·s
viscosity (312.33 K, Concentric cylinders viscometry): 3.071 ± 0.17 mPa·s
viscosity (312.35 K, Cone and plate viscometry): 3.1 ± 0.15 mPa·s and 3.14 ± 0.4 mPa·s
viscosity (312.45 K, Concentric cylinders viscometry): 3.065 ± 0.17 mPa·s
viscosity (312.45 K, Cone and plate viscometry): 3.04 ± 0.29 mPa·s
viscosity (312.55 K, Cone and plate viscometry): 3.07 ± 0.15 mPa·s
viscosity (312.65 K, Cone and plate viscometry): 3.12 ± 0.39 mPa·s and 3.26 ± 0.65 mPa·s
viscosity (312.69 K, Concentric cylinders viscometry): 3.043 ± 0.17 mPa·s
viscosity (312.75 K, Cone and plate viscometry): 3.07 ± 0.15 mPa·s and 3.01 ± 0.29 mPa·s
viscosity (312.85 K, Cone and plate viscometry): 3.1 ± 0.39 mPa·s
viscosity (312.95 K, Cone and plate viscometry): 3.07 ± 0.15 mPa·s
viscosity (313.15 K, Cone and plate viscometry): 3.04 ± 0.27 mPa·s [middle of 6 runs]
viscosity (313.18 K, Concentric cylinders viscometry): 3.011 ± 0.16 mPa·s and 3.01 ± 0.16 mPa·s
viscosity (313.24 K, Concentric cylinders viscometry): 3.009 ± 0.16 mPa·s
viscosity (313.25 K, Concentric cylinders viscometry): 3.009 ± 0.16 mPa·s
viscosity (313.26 K, Concentric cylinders viscometry): 3.008 ± 0.16 mPa·s and 3.011 ± 0.16 mPa·s
viscosity (313.34 K, Concentric cylinders viscometry): 3.01 ± 0.16 mPa·s
viscosity (313.35 K, Cone and plate viscometry): 3.01 ± 0.15 mPa·s and 3.07 ± 0.39 mPa·s
viscosity (313.45 K, Cone and plate viscometry): 2.98 ± 0.28 mPa·s
viscosity (313.55 K, Concentric cylinders viscometry): 2.985 ± 0.16 mPa·s
viscosity (313.55 K, Cone and plate viscometry): 3.01 ± 0.14 mPa·s
viscosity (313.65 K, Cone and plate viscometry): 3.05 ± 0.38 mPa·s and 3.21 ± 0.64 mPa·s
viscosity (313.75 K, Cone and plate viscometry): 3.01 ± 0.14 mPa·s
viscosity (313.85 K, Cone and plate viscometry): 3.04 ± 0.38 mPa·s and 2.96 ± 0.28 mPa·s
viscosity (313.93 K, Concentric cylinders viscometry): 2.956 ± 0.16 mPa·s
viscosity (313.95 K, Cone and plate viscometry): 3 ± 0.14 mPa·s
viscosity (314 K, Concentric cylinders viscometry): 2.951 ± 0.16 mPa·s
viscosity (314.15 K, Cone and plate viscometry): 2.99 ± 0.14 mPa·s and 3.02 ± 0.38 mPa·s and 3.18 ± 0.64 mPa·s
viscosity (314.25 K, Cone and plate viscometry): 2.93 ± 0.28 mPa·s
viscosity (314.3 K, Concentric cylinders viscometry): 2.931 ± 0.16 mPa·s
viscosity (314.35 K, Cone and plate viscometry): 2.96 ± 0.14 mPa·s and 3.01 ± 0.38 mPa·s
viscosity (314.55 K, Cone and plate viscometry): 2.97 ± 0.14 mPa·s and 2.92 ± 0.28 mPa·s
viscosity (314.65 K, Concentric cylinders viscometry): 2.907 ± 0.16 mPa·s
viscosity (314.65 K, Cone and plate viscometry): 3 ± 0.38 mPa·s and 3.16 ± 0.63 mPa·s
viscosity (314.67 K, Concentric cylinders viscometry): 2.905 ± 0.16 mPa·s
viscosity (314.75 K, Cone and plate viscometry): 2.97 ± 0.14 mPa·s
viscosity (314.85 K, Cone and plate viscometry): 2.98 ± 0.38 mPa·s
viscosity (314.95 K, Cone and plate viscometry): 2.94 ± 0.14 mPa·s and 2.9 ± 0.28 mPa·s
viscosity (315.01 K, Concentric cylinders viscometry): 2.882 ± 0.16 mPa·s
viscosity (315.15 K, Cone and plate viscometry): 2.96 ± 0.14 mPa·s and 2.97 ± 0.37 mPa·s and 3.13 ± 0.63 mPa·s
viscosity (315.35 K, Cone and plate viscometry): 2.91 ± 0.14 mPa·s and 2.95 ± 0.37 mPa·s and 2.88 ± 0.27 mPa·s
viscosity (315.41 K, Concentric cylinders viscometry): 2.854 ± 0.15 mPa·s
viscosity (315.43 K, Concentric cylinders viscometry): 2.857 ± 0.15 mPa·s
viscosity (315.55 K, Cone and plate viscometry): 2.91 ± 0.14 mPa·s
viscosity (315.65 K, Cone and plate viscometry): 2.94 ± 0.37 mPa·s and 2.87 ± 0.27 mPa·s and 3.1 ± 0.62 mPa·s
viscosity (315.75 K, Cone and plate viscometry): 2.9 ± 0.14 mPa·s
viscosity (315.77 K, Concentric cylinders viscometry): 2.833 ± 0.15 mPa·s
viscosity (315.85 K, Cone and plate viscometry): 2.92 ± 0.37 mPa·s
viscosity (315.95 K, Cone and plate viscometry): 2.89 ± 0.14 mPa·s
viscosity (316.05 K, Cone and plate viscometry): 2.84 ± 0.27 mPa·s
viscosity (316.12 K, Concentric cylinders viscometry): 2.81 ± 0.15 mPa·s
viscosity (316.13 K, Concentric cylinders viscometry): 2.812 ± 0.15 mPa·s
viscosity (316.15 K, Cone and plate viscometry): 2.88 ± 0.14 mPa·s and 2.9 ± 0.36 mPa·s and 3.08 ± 0.62 mPa·s
viscosity (316.35 K, Cone and plate viscometry): 2.88 ± 0.14 mPa·s and 2.89 ± 0.36 mPa·s and 2.83 ± 0.27 mPa·s
viscosity (316.5 K, Concentric cylinders viscometry): 2.785 ± 0.15 mPa·s
viscosity (316.55 K, Cone and plate viscometry): 2.88 ± 0.14 mPa·s
viscosity (316.65 K, Cone and plate viscometry): 2.87 ± 0.36 mPa·s and 2.81 ± 0.27 mPa·s and 3.06 ± 0.61 mPa·s
viscosity (316.75 K, Cone and plate viscometry): 2.88 ± 0.14 mPa·s
viscosity (316.81 K, Concentric cylinders viscometry): 2.771 ± 0.15 mPa·s
viscosity (316.83 K, Concentric cylinders viscometry): 2.763 ± 0.15 mPa·s
viscosity (316.85 K, Cone and plate viscometry): 2.86 ± 0.36 mPa·s
viscosity (316.95 K, Cone and plate viscometry): 2.88 ± 0.14 mPa·s
viscosity (317.15 K, Cone and plate viscometry): 2.86 ± 0.14 mPa·s [middle of 4 runs]
viscosity (317.2 K, Concentric cylinders viscometry): 2.74 ± 0.15 mPa·s
viscosity (317.35 K, Cone and plate viscometry): 2.83 ± 0.14 mPa·s and 2.84 ± 0.36 mPa·s
viscosity (317.45 K, Cone and plate viscometry): 2.79 ± 0.27 mPa·s
viscosity (317.46 K, Concentric cylinders viscometry): 2.732 ± 0.15 mPa·s
viscosity (317.55 K, Cone and plate viscometry): 2.82 ± 0.14 mPa·s
viscosity (317.61 K, Concentric cylinders viscometry): 2.715 ± 0.15 mPa·s
viscosity (317.65 K, Cone and plate viscometry): 2.84 ± 0.36 mPa·s and 3.02 ± 0.61 mPa·s
viscosity (317.75 K, Cone and plate viscometry): 2.84 ± 0.14 mPa·s and 2.83 ± 0.27 mPa·s
viscosity (317.95 K, Cone and plate viscometry): 2.82 ± 0.14 mPa·s and 2.83 ± 0.36 mPa·s
viscosity (317.96 K, Concentric cylinders viscometry): 2.694 ± 0.15 mPa·s
viscosity (318.08 K, Concentric cylinders viscometry): 2.693 ± 0.15 mPa·s
viscosity (318.15 K, Cone and plate viscometry): 2.83 ± 0.14 mPa·s [middle of 5 runs]
viscosity (318.26 K, Concentric cylinders viscometry): 2.679 ± 0.14 mPa·s
viscosity (318.43 K, Concentric cylinders viscometry): 2.672 ± 0.14 mPa·s
viscosity (318.45 K, Concentric cylinders viscometry): 2.665 ± 0.14 mPa·s
viscosity (318.49 K, Concentric cylinders viscometry): 2.653 ± 0.14 mPa·s
viscosity (318.5 K, Concentric cylinders viscometry): 2.654 ± 0.14 mPa·s
viscosity (318.53 K, Concentric cylinders viscometry): 2.655 ± 0.14 mPa·s
viscosity (318.57 K, Concentric cylinders viscometry): 2.661 ± 0.14 mPa·s
viscosity (318.58 K, Concentric cylinders viscometry): 2.662 ± 0.14 mPa·s
viscosity (318.59 K, Concentric cylinders viscometry): 2.655 ± 0.14 mPa·s
viscosity (318.6 K, Concentric cylinders viscometry): 2.659 ± 0.14 mPa·s
viscosity (318.61 K, Concentric cylinders viscometry): 2.657 ± 0.14 mPa·s
viscosity (318.64 K, Concentric cylinders viscometry): 2.654 ± 0.14 mPa·s
viscosity (318.65 K, Concentric cylinders viscometry): 2.66 ± 0.14 mPa·s
viscosity (318.69 K, Concentric cylinders viscometry): 2.655 ± 0.14 mPa·s
